Results reported in ChEMBL document CHEMBL5724806, “Unraveling interindividual differences and functional consequences of gut microbial metabolism of immunosuppressants” (2024).

What was measured:
Type in all cases: ADME
[1] = The drug is tested on Actinomyces naeslundi strain: DSM43013 for biotransformation under microaerobic condition. The drug concentrations were measured over 6 timepoints collected between 0 and 12 hours of incubation by liquid-chromatography-coupled mass spectrometry (LC–MS); design: dose 5 uM, timepoint 0, 1.5, 3, 6, 9, 12 hours; details: actinomyces naeslundii, 5 µM
[2] = The drug is tested on Streptococcus anginosus strain: DSM20563 for biotransformation under anaerobic condition. The drug concentrations were measured over 6 timepoints collected between 0 and 12 hours of incubation by liquid-chromatography-coupled mass spectrometry (LC–MS); design: dose 5 uM, timepoint 0, 1.5, 3, 6, 9, 12 hours; details: 5 µM
[3] = The drug is tested on Clostridium bolteae strain: DSM15670 for biotransformation under anaerobic condition. The drug concentrations were measured over 6 timepoints collected between 0 and 12 hours of incubation by liquid-chromatography-coupled mass spectrometry (LC–MS); design: dose 5 uM, timepoint 0, 1.5, 3, 6, 9, 12 hours; details: enterocloster bolteae, 5 µM
[4] = The drug is tested on Streptococcus sanguinis strain: DSM20567 for biotransformation under anaerobic condition. The drug concentrations were measured over 6 timepoints collected between 0 and 12 hours of incubation by liquid-chromatography-coupled mass spectrometry (LC–MS); design: dose 5 uM, timepoint 0, 1.5, 3, 6, 9, 12 hours; details: 5 µM
[5] = The drug is tested on Clostridium scindens strain: DSM5676 for biotransformation under anaerobic condition. The drug concentrations were measured over 6 timepoints collected between 0 and 12 hours of incubation by liquid-chromatography-coupled mass spectrometry (LC–MS); design: dose 5 uM, timepoint 0, 1.5, 3, 6, 9, 12 hours; details: 5 µM
[6] = The drug is tested on the gut metagenome community of A-10 with ENA study accession number: PRJEB31790 for biotransformation under anaerobic condition. The drug concentrations were measured over 7 timepoints collected between 0 and 12 hours of incubation by liquid-chromatography-coupled mass spectrometry (LC–MS); design: dose 5 uM, timepoint 0, 0.75, 1.5, 3, 6, 9, 12 hours; details: 5 µM
[7] = The drug is tested on the gut metagenome community of A-01 with ENA study accession number: PRJEB31790 for biotransformation under anaerobic condition. The drug concentrations were measured over 7 timepoints collected between 0 and 12 hours of incubation by liquid-chromatography-coupled mass spectrometry (LC–MS); design: dose 5 uM, timepoint 0, 0.75, 1.5, 3, 6, 9, 12 hours; details: 5 µM
[8] = The drug is tested on the gut metagenome community of A-09 with ENA study accession number: PRJEB31790 for biotransformation under anaerobic condition. The drug concentrations were measured over 7 timepoints collected between 0 and 12 hours of incubation by liquid-chromatography-coupled mass spectrometry (LC–MS); design: dose 5 uM, timepoint 0, 0.75, 1.5, 3, 6, 9, 12 hours; details: 5 µM
[9] = The drug is tested on Gemella morbillorum strain: DSM20572 for biotransformation under microaerobic condition. The drug concentrations were measured over 6 timepoints collected between 0 and 12 hours of incubation by liquid-chromatography-coupled mass spectrometry (LC–MS); design: dose 5 uM, timepoint 0, 1.5, 3, 6, 9, 12 hours; details: 5 µM
[10] = The drug is tested on Streptococcus mitis strain: DSM12643 for biotransformation under microaerobic condition. The drug concentrations were measured over 6 timepoints collected between 0 and 12 hours of incubation by liquid-chromatography-coupled mass spectrometry (LC–MS); design: dose 5 uM, timepoint 0, 1.5, 3, 6, 9, 12 hours; details: 5 µM
[11] = The drug is tested on Ruminococcus gnavus strain: ATCC29149 for biotransformation under anaerobic condition. The drug concentrations were measured over 6 timepoints collected between 0 and 12 hours of incubation by liquid-chromatography-coupled mass spectrometry (LC–MS); design: dose 5 uM, timepoint 0, 1.5, 3, 6, 9, 12 hours; details: mediterraneibacter gnavus, 5 µM
[12] = The drug is tested on the gut metagenome community of T-01 with ENA study accession number: PRJEB31790 for biotransformation under anaerobic condition. The drug concentrations were measured over 7 timepoints collected between 0 and 12 hours of incubation by liquid-chromatography-coupled mass spectrometry (LC–MS); design: dose 5 uM, timepoint 0, 0.75, 1.5, 3, 6, 9, 12 hours; details: 5 µM
[13] = The drug is tested on Actinomyces graevenitzii strain: DSM15540 for biotransformation under microaerobic condition. The drug concentrations were measured over 6 timepoints collected between 0 and 12 hours of incubation by liquid-chromatography-coupled mass spectrometry (LC–MS); design: dose 5 uM, timepoint 0, 1.5, 3, 6, 9, 12 hours; details: 5 µM
[14] = The drug is tested on Lactobacillus paracasei strain: ATCC27092 for biotransformation under anaerobic condition. The drug concentrations were measured over 6 timepoints collected between 0 and 12 hours of incubation by liquid-chromatography-coupled mass spectrometry (LC–MS); design: dose 5 uM, timepoint 0, 1.5, 3, 6, 9, 12 hours; details: lacticaseibacillus paracasei, 5 µM
[15] = The drug is tested on the gut metagenome community of P-01 with ENA study accession number: PRJEB31790 for biotransformation under microaerobic condition. The drug concentrations were measured over 7 timepoints collected between 0 and 12 hours of incubation by liquid-chromatography-coupled mass spectrometry (LC–MS); design: dose 5 uM, timepoint 0, 0.75, 1.5, 3, 6, 9, 12 hours; details: 5 µM
[16] = The drug is tested on Lactobacillus fermentum strain: DSM20052 for biotransformation under microaerobic condition. The drug concentrations were measured over 6 timepoints collected between 0 and 12 hours of incubation by liquid-chromatography-coupled mass spectrometry (LC–MS); design: dose 5 uM, timepoint 0, 1.5, 3, 6, 9, 12 hours; details: limosilactobacillus fermentum, 5 µM
[17] = The drug is tested on the gut metagenome community of A-03 with ENA study accession number: PRJEB31790 for biotransformation under anaerobic condition. The drug concentrations were measured over 7 timepoints collected between 0 and 12 hours of incubation by liquid-chromatography-coupled mass spectrometry (LC–MS); design: dose 5 uM, timepoint 0, 0.75, 1.5, 3, 6, 9, 12 hours; details: 5 µM
[18] = The drug is tested on Streptococcus mitis strain: DSM12643 for biotransformation under anaerobic condition. The drug concentrations were measured over 6 timepoints collected between 0 and 12 hours of incubation by liquid-chromatography-coupled mass spectrometry (LC–MS); design: dose 5 uM, timepoint 0, 1.5, 3, 6, 9, 12 hours; details: 5 µM
[19] = The drug is tested on Collinsella aerofaciens strain: DSM3979 for biotransformation under anaerobic condition. The drug concentrations were measured over 6 timepoints collected between 0 and 12 hours of incubation by liquid-chromatography-coupled mass spectrometry (LC–MS); design: dose 5 uM, timepoint 0, 1.5, 3, 6, 9, 12 hours; details: 5 µM
[20] = The drug is tested on Bifidobacterium adolescentis strain: DSM20083 for biotransformation under anaerobic condition. The drug concentrations were measured over 6 timepoints collected between 0 and 12 hours of incubation by liquid-chromatography-coupled mass spectrometry (LC–MS); design: dose 5 uM, timepoint 0, 1.5, 3, 6, 9, 12 hours; details: 5 µM
[21] = The drug is tested on Parabacteroides distasonis strain: DSM20701 for biotransformation under anaerobic condition. The drug concentrations were measured over 6 timepoints collected between 0 and 12 hours of incubation by liquid-chromatography-coupled mass spectrometry (LC–MS); design: dose 5 uM, timepoint 0, 1.5, 3, 6, 9, 12 hours; details: 5 µM
[22] = The drug is tested on Lactobacillus gasseri strain: DSM20243 for biotransformation under anaerobic condition. The drug concentrations were measured over 6 timepoints collected between 0 and 12 hours of incubation by liquid-chromatography-coupled mass spectrometry (LC–MS); design: dose 5 uM, timepoint 0, 1.5, 3, 6, 9, 12 hours; details: 5 µM
[23] = The drug is tested on Lactobacillus gasseri strain: DSM20243 for biotransformation under microaerobic condition. The drug concentrations were measured over 6 timepoints collected between 0 and 12 hours of incubation by liquid-chromatography-coupled mass spectrometry (LC–MS); design: dose 5 uM, timepoint 0, 1.5, 3, 6, 9, 12 hours; details: 5 µM
[24] = The drug is tested on Faecalibacterium prausnitzii strain: DSM17677 for biotransformation under anaerobic condition. The drug concentrations were measured over 6 timepoints collected between 0 and 12 hours of incubation by liquid-chromatography-coupled mass spectrometry (LC–MS); design: dose 5 uM, timepoint 0, 1.5, 3, 6, 9, 12 hours; details: faecalibacterium duncaniae, 5 µM
[25] = The drug is tested on Blautia hansenii strain: DSM20583 for biotransformation under anaerobic condition. The drug concentrations were measured over 6 timepoints collected between 0 and 12 hours of incubation by liquid-chromatography-coupled mass spectrometry (LC–MS); design: dose 5 uM, timepoint 0, 1.5, 3, 6, 9, 12 hours; details: 5 µM
[26] = The drug is tested on the gut metagenome community of P-03 with ENA study accession number: PRJEB31790 for biotransformation under microaerobic condition. The drug concentrations were measured over 7 timepoints collected between 0 and 12 hours of incubation by liquid-chromatography-coupled mass spectrometry (LC–MS); design: dose 5 uM, timepoint 0, 0.75, 1.5, 3, 6, 9, 12 hours; details: 5 µM

Row | Structure (SMILES) | Bacterial Biotransformation [1] | Bacterial Biotransformation [2] | Bacterial Biotransformation [3] | Bacterial Biotransformation [4] | Bacterial Biotransformation [5] | Bacterial Biotransformation [6] | Bacterial Biotransformation [7] | Bacterial Biotransformation [8] | Bacterial Biotransformation [9] | Bacterial Biotransformation [10] | Bacterial Biotransformation [11] | Bacterial Biotransformation [12] | Bacterial Biotransformation [13] | Bacterial Biotransformation [14] | Bacterial Biotransformation [15] | Bacterial Biotransformation [16] | Bacterial Biotransformation [17] | Bacterial Biotransformation [18] | Bacterial Biotransformation [19] | Bacterial Biotransformation [20] | also measured
1 | CCOC(=O)[C@H](CCc1ccccc1)N[C@@H](C)C(=O)N1[C@H](C(=O)O)C[C@@H]2CCC[C@@H]21 | Compound NOT metabolized | Compound NOT metabolized | Compound NOT metabolized | Compound NOT metabolized | Compound NOT metabolized | Compound NOT metabolized | Compound NOT metabolized | Compound NOT metabolized | Compound NOT metabolized | Compound NOT metabolized | Compound NOT metabolized | Compound NOT metabolized | Compound NOT metabolized | Compound NOT metabolized | Compound NOT metabolized | Compound NOT metabolized | Compound NOT metabolized | Compound NOT metabolized | Compound NOT metabolized | Compound NOT metabolized | Bacterial Biotransformation [21]: Compound NOT metabolized; Bacterial Biotransformation [22]: Compound NOT metabolized; Bacterial Biotransformation [23]: Compound NOT metabolized; Bacterial Biotransformation [24]: Compound NOT metabolized; Bacterial Biotransformation [25]: Compound NOT metabolized; Bacterial Biotransformation [26]: Compound NOT metabolized
2 | C[C@@H](NCCCc1cccc(C(F)(F)F)c1)c1cccc2ccccc12 | Compound NOT metabolized | Compound NOT metabolized | Compound NOT metabolized | Compound NOT metabolized | Compound NOT metabolized | Compound NOT metabolized | Compound NOT metabolized | Compound NOT metabolized | Compound NOT metabolized | Compound NOT metabolized | Compound NOT metabolized | Compound metabolized | Compound NOT metabolized | Compound NOT metabolized | Compound NOT metabolized | Compound NOT metabolized | Compound NOT metabolized | Compound NOT metabolized | Compound NOT metabolized | Compound NOT metabolized | Bacterial Biotransformation [21]: Compound NOT metabolized; Bacterial Biotransformation [22]: Compound NOT metabolized; Bacterial Biotransformation [23]: Compound NOT metabolized; Bacterial Biotransformation [24]: Compound NOT metabolized; Bacterial Biotransformation [25]: Compound NOT metabolized; Bacterial Biotransformation [26]: Compound NOT metabolized
3 | CC(C)NCC(O)COc1ccc(CC(N)=O)cc1 (stereo not drawn) [ATENOLOL] | Compound NOT metabolized | Compound NOT metabolized | Compound NOT metabolized | Compound NOT metabolized | Compound NOT metabolized | Compound NOT metabolized | Compound NOT metabolized | Compound NOT metabolized | Compound NOT metabolized | Compound NOT metabolized | Compound NOT metabolized | Compound NOT metabolized | Compound NOT metabolized | Compound NOT metabolized | Compound NOT metabolized | Compound NOT metabolized | Compound NOT metabolized | Compound NOT metabolized | Compound NOT metabolized | Compound NOT metabolized | Bacterial Biotransformation [21]: Compound NOT metabolized; Bacterial Biotransformation [22]: Compound NOT metabolized; Bacterial Biotransformation [23]: Compound NOT metabolized; Bacterial Biotransformation [24]: Compound NOT metabolized; Bacterial Biotransformation [25]: Compound NOT metabolized; Bacterial Biotransformation [26]: Compound NOT metabolized
